Our source for the EC50 and IC90 values is patent US20240228488A1 (TAKEDA PHARMACEUTICAL COMPANY LIMITED, priority 2021, published 2024).

The target of assay [1] is human activated kallikrein enzyme (Homo sapiens, UniProt P03952). Nature of the assay: Plasma kallikrein inhibition, fluorogenic PFR-AMC substrate, 500 pM activated kallikrein format. In kind it is biochemical. The following applies: 500 pM activated kallikrein, 300 uM PFR-AMC, 30 min preincubation, 10 min reaction; read-out: Primary Dose Response Assay: Average EC50. An outline of the steps:
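High-enzyme format of the fluorogenic peptide assay, with EC50 taken from AMC signal: 500 pM activated kallikrein, 300 uM Pro-Phe-Arg-AMC, 30 min compound preincubation and 10 min reaction, all at room temperature, pH 7.5.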

In assay [2] the target is T1, plasma kallikrein (Homo sapiens, UniProt P03952).
T1 construct: from tissue
As to the kind of experiment: Neat human plasma assay, FXIIa contact pathway-activated, PFR-AMC substrate. In kind it is biochemical. The following applies: citrated human plasma 78% final, 10 nM human FXIIa, 100 μM PFR-AMC; read-out: Human Plasma Assay: IC90. Summed up:
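Compound inhibition of plasma kallikrein measured as PFR-AMC (100 μM) cleavage rate over 5 min at room temperature in 78% citrated human plasma activated with 10 nM FXIIa (Tris pH 7.5 buffer). IC50/IC90 from 4-parameter fit of rate versus inhibitor concentration.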

Usually EC50 stands for the concentration needed to bring the measured effect to its halfway point. Broadly, the IC90 is the concentration needed for an effect of 90%.

T1 sequence (P03952 391-638 limits assumed): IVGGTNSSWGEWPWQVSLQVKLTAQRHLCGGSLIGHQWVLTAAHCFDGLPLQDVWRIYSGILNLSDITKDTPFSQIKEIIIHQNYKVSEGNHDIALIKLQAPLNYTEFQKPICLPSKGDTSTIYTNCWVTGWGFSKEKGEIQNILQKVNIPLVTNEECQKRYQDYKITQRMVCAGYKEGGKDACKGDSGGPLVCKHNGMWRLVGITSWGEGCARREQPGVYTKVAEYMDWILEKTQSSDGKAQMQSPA
T1 sequence (P03952 20-390 partner limits assumed): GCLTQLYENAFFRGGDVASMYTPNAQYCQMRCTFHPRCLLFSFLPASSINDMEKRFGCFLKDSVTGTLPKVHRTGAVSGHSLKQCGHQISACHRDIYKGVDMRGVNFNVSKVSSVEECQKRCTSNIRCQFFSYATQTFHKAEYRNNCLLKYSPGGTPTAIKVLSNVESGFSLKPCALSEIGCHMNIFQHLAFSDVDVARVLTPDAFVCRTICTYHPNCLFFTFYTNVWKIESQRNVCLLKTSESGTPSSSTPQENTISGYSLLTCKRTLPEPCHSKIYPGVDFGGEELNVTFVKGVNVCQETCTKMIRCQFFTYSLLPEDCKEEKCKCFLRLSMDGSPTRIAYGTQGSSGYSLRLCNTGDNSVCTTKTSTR
Sequence of human activated kallikrein enzyme (P03952 391-638 limits assumed): as the sequence (P03952 391-638 limits assumed) above
Sequence of human activated kallikrein enzyme (P03952 20-390 partner limits assumed): as the sequence (P03952 20-390 partner limits assumed) above

In the case of `CN1C(=O)CN(c2cc(C3CC3)cn3cc([C@H]4C[C@H](O)CN4c4cc(NC(=O)[C@H]5C[C@@H]5c5cc(Cl)ccn5)ncn4)nc23)C1=O` [Example 478, (1S,2S)-2-(4-chloropyridin-2-yl)-N-(6-((2R,4S)-2-(6-cyclopropyl-8-(3-methyl-2,4-dioxoimidazolidin-1-yl)imidazo[1,2-a]pyridin-2-yl)-4-hydroxypyrrolidin-1-yl)pyrimidin-4-yl)cyclopropane-1-carboxamide], the EC50 in assay [1] was less than 1 nM. Besides, the concentration for an effect of 90% (IC90) in assay [2] was 400 to 1500 nM.

As to `O=C(Nc1cc(N2C[C@@H](O)C[C@@H]2c2cn3cc(C4CC4)cc(N4CCOC4=O)c3n2)ncn1)[C@H]1C[C@@H]1c1cccc(Cl)c1` [Example 479, (1S,2S)-2-(3-chlorophenyl)-N-(6-((2R,4S)-2-(6-cyclopropyl-8-(2-oxooxazolidin-3-yl)imidazo[1,2-a]pyridin-2-yl)-4-hydroxypyrrolidin-1-yl)pyrimidin-4-yl)cyclopropane-1-carboxamide], the EC50 in assay [1] fell in the range of 1 to 10 nM. In assay [2], the IC90 fell in the range of 1500 to 10000 nM.

In the case of `CN1C(=O)CN(c2cc(C3CC3)cn3cc([C@H]4C[C@H](O)CN4c4cc(NC(=O)[C@H]5C[C@@H]5c5cccc(Cl)c5)ncn4)nc23)C1=O` [Example 480, (1S,2S)-2-(3-chlorophenyl)-N-(6-((2R,4S)-2-(6-cyclopropyl-8-(3-methyl-2,4-dioxoimidazolidin-1-yl)imidazo[1,2-a]pyridin-2-yl)-4-hydroxypyrrolidin-1-yl)pyrimidin-4-yl)cyclopropane-1-carboxamide], the EC50 in assay [1] fell in the range of 1 to 10 nM. The IC90 in assay [2] is less than 400 nM.

As for `O=C1CN(c2cc(C3CC3)cn3cc(CNc4cc(NC(=O)[C@H]5C[C@@H]5c5cc(Cl)ccn5)nc(O)n4)nc23)C(=O)N1` [Example 487, (1S,2S)-2-(4-chloropyridin-2-yl)-N-(6-(((6-cyclopropyl-8-(2,4-dioxoimidazolidin-1-yl)imidazo[1,2-a]pyridin-2-yl)methyl)amino)-2-hydroxypyrimidin-4-yl)cyclopropane-1-carboxamide], the EC50 in assay [1] was less than 1 nM. In addition, in assay [2], the IC90 is less than 400 nM.

Regarding `CN1CCC(O)(c2cc(C3CC3)cn3cc(CNc4ccnc(NC(=O)[C@H]5C[C@@H]5c5cccc(Cl)c5)c4)nc23)CC1` [Example 488, (1S,2S)-2-(3-chlorophenyl)-N-(4-(((6-cyclopropyl-8-(4-hydroxy-1-methylpiperidin-4-yl)imidazo[1,2-a]pyridin-2-yl)methyl)amino)pyridin-2-yl)cyclopropane-1-carboxamide], the EC50 in assay [1] is less than 1 nM. Besides, the IC90 in assay [2] fell in the range of 400 to 1500 nM.

On to `O=C(Nc1cc(NCc2cn3cc(C4CC4)cc(N4CC(=O)N(CC(F)(F)F)C4=O)c3n2)ccn1)[C@H]1C[C@@H]1c1cccc(Cl)c1` [Example 512, (1S,2S)-2-(3-chlorophenyl)-N-(4-(((6-cyclopropyl-8-(2,4-dioxo-3-(2,2,2-trifluoroethyl)imidazolidin-1-yl)imidazo[1,2-a]pyridin-2-yl)methyl)amino)pyridin-2-yl)cyclopropane-1-carboxamide], for which the EC50 in assay [1] lay within 1 to 10 nM. Besides, the 90% effect concentration (IC90) in assay [2] lay within 1500 to 10000 nM.

As to `O=C(Nc1cc(NCc2cn3cc(C4CC4)cc(N4CC(=O)N(C5CC5)C4=O)c3n2)ccn1)[C@H]1C[C@@H]1c1cccc(Cl)c1` [Example 513, (1S,2S)-2-(3-chlorophenyl)-N-(4-(((6-cyclopropyl-8-(3-cyclopropyl-2,4-dioxoimidazolidin-1-yl)imidazo[1,2-a]pyridin-2-yl)methyl)amino)pyridin-2-yl)cyclopropane-1-carboxamide], the EC50 in assay [1] was less than 1 nM. Besides, the 90% effect concentration (IC90) in assay [2] was in the range of 1500 to 10000 nM.

Consider `Cc1ccnc([C@H]2C[C@@H]2C(=O)Nc2cc(N[C@H](C)c3cn4cc(C5CC5)cc(N5CCOC5=O)c4n3)ncn2)n1` [Example 534, (1S,2S)-N-(6-(((R)-1-(6-cyclopropyl-8-(2-oxooxazolidin-3-yl)imidazo[1,2-a]pyridin-2-yl)ethyl)amino)pyrimidin-4-yl)-2-(4-methylpyrimidin-2-yl)cyclopropane-1-carboxamide], for which the EC50 in assay [1] is less than 1 nM. Moreover, in assay [2], the concentration for an effect of 90% (IC90) was less than 400 nM.

Take `Cc1ccnc([C@H]2C[C@@H]2C(=O)Nc2cc(OC(C)c3cn4cc(C5CC5)cc(N5CC(=O)N(C)C5=O)c4n3)ncn2)n1` (stereo partly drawn) [Example 549, (1S,2S)—N-(6-(1-(6-cyclopropyl-8-(3-methyl-2,4-dioxoimidazolidin-1-yl)imidazo[1,2-a]pyridin-2-yl)ethoxy)pyrimidin-4-yl)-2-(4-methylpyrimidin-2-yl)cyclopropane-1-carboxamide]: the EC50 in assay [1] is less than 1 nM. For the same molecule, in assay [2], the IC90 lay within 400 to 1500 nM.

For `COC(=O)CN1C(=O)CN(c2cc(C3CC3)cn3cc(COc4cc(NC(=O)[C@H]5C[C@@H]5c5nccc(C)n5)nc(C)n4)nc23)C1=O` [Example 550, methyl 2-(3-(6-cyclopropyl-2-(((2-methyl-6-((1S,2S)-2-(4-methylpyrimidin-2-yl)cyclopropane-1-carboxamido)pyrimidin-4-yl)oxy)methyl)imidazo[1,2-a]pyridin-8-yl)-2,5-dioxoimidazolidin-1-yl)acetate], the EC50 in assay [1] was less than 1 nM. The IC90 in assay [2] fell in the range of 400 to 1500 nM.

`COCc1nc(NC(=O)[C@H]2C[C@@H]2c2nccc(C)n2)cc(OCc2cn3cc(C4CC4)cc(N4CC(=O)N(C)C4=O)c3n2)n1` [Example 551, (1S,2S)-N-(6-((6-cyclopropyl-8-(3-methyl-2,4-dioxoimidazolidin-1-yl)imidazo[1,2-a]pyridin-2-yl)methoxy)-2-(methoxymethyl)pyrimidin-4-yl)-2-(4-methylpyrimidin-2-yl)cyclopropane-1-carboxamide]: in assay [1], the EC50 is less than 1 nM. Moreover, the 90% effect concentration (IC90) in assay [2] lay in the range of 400 to 1500 nM.

Take `Cc1ccnc([C@H]2C[C@@H]2C(=O)Nc2cc(OC(C)c3cn4cc(C5CC5)cc(N5CC(=O)N(C)C5=O)c4n3)nc(C)n2)n1` (stereo partly drawn) [Example 552, (1S,2S)-N-(6-(1-(6-cyclopropyl-8-(3-methyl-2,4-dioxoimidazolidin-1-yl)imidazo[1,2-a]pyridin-2-yl)ethoxy)-2-methylpyrimidin-4-yl)-2-(4-methylpyrimidin-2-yl)cyclopropane-1-carboxamide]: in assay [1], the EC50 is less than 1 nM. Moreover, the IC90 in assay [2] is 1500 to 10000 nM.

In the case of `Cc1ccnc([C@H]2C[C@@H]2C(=O)Nc2cc(OCc3cn4cc(C5CC5)cc(N5CC6(COC6)OC5=O)c4n3)nc(C)n2)n1` [Example 553, (1S,2S)-N-(6-((6-cyclopropyl-8-(6-oxo-2,5-dioxa-7-azaspiro[3.4]octan-7-yl)imidazo[1,2-a]pyridin-2-yl)methoxy)-2-methylpyrimidin-4-yl)-2-(4-methylpyrimidin-2-yl)cyclopropane-1-carboxamide], in assay [1], the EC50 is less than 1 nM. Also, in assay [2], the IC90 is less than 400 nM.

`Cc1ccnc([C@H]2C[C@@H]2C(=O)Nc2cc(OCc3cn4cc(C5CC5)cc(N5CC(=O)N(C)C5=O)c4n3)nc(C)n2)n1` [Example 555, (1S,2S)-N-(6-((6-cyclopropyl-8-(3-methyl-2,4-dioxoimidazolidin-1-yl)imidazo[1,2-a]pyridin-2-yl)methoxy)-2-methylpyrimidin-4-yl)-2-(4-methylpyrimidin-2-yl)cyclopropane-1-carboxamide]: in assay [1], the EC50 is less than 1 nM. For the same molecule, in assay [2], the IC90 lay in the range of 400 to 1500 nM.

For the molecule `COc1nc(NC(=O)[C@H]2C[C@@H]2c2nccc(C)n2)cc(OCc2cn3cc(C4CC4)cc(N4CC(=O)N(C)C4=O)c3n2)n1` [Example 556, (1S,2S)-N-(6-((6-cyclopropyl-8-(3-methyl-2,4-dioxoimidazolidin-1-yl)imidazo[1,2-a]pyridin-2-yl)methoxy)-2-methoxypyrimidin-4-yl)-2-(4-methylpyrimidin-2-yl)cyclopropane-1-carboxamide], the EC50 in assay [1] is less than 1 nM. In addition, the IC90 in assay [2] lay within 400 to 1500 nM.

Consider `CN1C(=O)CN(c2cc(C3CC3)cn3cc(COc4cnnc(NC(=O)[C@H]5C[C@@H]5c5cccc(Cl)c5)c4)nc23)C1=O` [Example 557, (1S,2S)-2-(3-chlorophenyl)-N-(5-((6-cyclopropyl-8-(3-methyl-2,4-dioxoimidazolidin-1-yl)imidazo[1,2-a]pyridin-2-yl)methoxy)pyridazin-3-yl)cyclopropane-1-carboxamide], for which the EC50 in assay [1] is less than 1 nM. Further, in assay [2], the 90% effect concentration (IC90) is 400 to 1500 nM.

As to `Cc1ccnc([C@H]2C[C@@H]2C(=O)Nc2cc(OCc3cn4cc(C5CC5)cc(N5CC(=O)N(C)C5=O)c4n3)cnn2)n1` [Example 558, (1S,2S)-N-(5-((6-cyclopropyl-8-(3-methyl-2,4-dioxoimidazolidin-1-yl)imidazo[1,2-a]pyridin-2-yl)methoxy)pyridazin-3-yl)-2-(4-methylpyrimidin-2-yl)cyclopropane-1-carboxamide], the EC50 in assay [1] is less than 1 nM. The IC90 in assay [2] was less than 400 nM.

In the case of `Cc1ccnc([C@H]2C[C@@H]2C(=O)Nc2cc(OCc3cn4cc(C5CC5)cc(N5CC(=O)N(C)C5=O)c4n3)c(C)nn2)n1` [Example 560, (1S,2S)-N-(5-((6-cyclopropyl-8-(3-methyl-2,4-dioxoimidazolidin-1-yl)imidazo[1,2-a]pyridin-2-yl)methoxy)-6-methylpyridazin-3-yl)-2-(4-methylpyrimidin-2-yl)cyclopropane-1-carboxamide], the 50% effective concentration (EC50) in assay [1] is less than 1 nM. Also, the IC90 in assay [2] is less than 400 nM.

In the case of `Cc1ccnc([C@H]2C[C@@H]2C(=O)Nc2cc(OCc3cn4cc(C5CC5)cc(S(C)(=O)=O)c4n3)cnn2)n1` [Example 561, (1S,2S)-N-(5-((6-cyclopropyl-8-(methylsulfonyl)imidazo[1,2-a]pyridin-2-yl)methoxy)pyridazin-3-yl)-2-(4-methylpyrimidin-2-yl)cyclopropane-1-carboxamide], the EC50 in assay [1] is less than 1 nM. In addition, the IC90 in assay [2] was less than 400 nM.
